Reference: ChEMBL document CHEMBL2146458, “Tanshinones as selective and slow-binding inhibitors for SARS-CoV cysteine proteases” (Bioorg Med Chem, 2012)
Calls of active or inactive are those of the source. The calls are words filed in the database; no cut-off is given here.

Tests used:
[1] = target: Replicase polyprotein 1a (Severe acute respiratory syndrome-related coronavirus) (UniProt P0C6U8); settings: 200 uM
Replicase polyprotein 1a [2] = target: T1, Replicase polyprotein 1a (Severe acute respiratory syndrome-related coronavirus, UniProt P0C6U8)
Replicase polyprotein 1a [3] = target: T1, Replicase polyprotein 1a; remark: listed apart in the source
Replicase polyprotein 1a [4] = target: T1, Replicase polyprotein 1a; settings: read-out: Ki(app)
Replicase polyprotein 1a [5] = target: T1, Replicase polyprotein 1a; remark: listed apart in the source
[6] = Inhibition of chymotrypsin using N-benzoyl-L-tyrosine ethyl ester as substrate assessed as benzoyl-tyrosine production measured every 10 seconds for 6 mins
Papain = target: T2, Papain (Carica papaya, UniProt P00784); experiment: Inhibition of papaya papain using N-alpha-benzoyl-L-arginine-pnitroanilide as substrate after 5 mins
T2 sequence (P00784 whole entry): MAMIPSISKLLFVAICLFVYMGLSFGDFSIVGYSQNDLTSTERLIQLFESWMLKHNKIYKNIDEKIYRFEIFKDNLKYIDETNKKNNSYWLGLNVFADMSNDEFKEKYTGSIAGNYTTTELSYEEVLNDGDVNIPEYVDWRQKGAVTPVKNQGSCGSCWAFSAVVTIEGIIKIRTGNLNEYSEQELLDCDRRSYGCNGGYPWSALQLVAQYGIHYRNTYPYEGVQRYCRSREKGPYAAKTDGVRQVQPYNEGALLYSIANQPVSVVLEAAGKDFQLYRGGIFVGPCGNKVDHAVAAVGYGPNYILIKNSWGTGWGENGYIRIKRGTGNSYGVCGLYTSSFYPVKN

Protease = Protease (Human immunodeficiency virus 1, UniProt Q9YQ12); experiment: Inhibition of Human immunodeficiency virus 1 protease preincubated for 10 mins by FRET assay
Sequence of Protease (Q9YQ12 whole entry): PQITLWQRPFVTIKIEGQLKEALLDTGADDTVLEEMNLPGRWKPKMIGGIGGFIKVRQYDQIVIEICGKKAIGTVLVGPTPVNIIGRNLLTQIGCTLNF

[7] = target: Replicase polyprotein 1a (Severe acute respiratory syndrome-related coronavirus) (UniProt P0C6U8); settings: TDE = time-dependent effect
[8] = target: Replicase polyprotein 1a (Severe acute respiratory syndrome-related coronavirus) (UniProt P0C6U8)
Replicase polyprotein 1a [9] = target: T1, Replicase polyprotein 1a; remark: listed apart in the source
[10] = target: Replicase polyprotein 1a (Severe acute respiratory syndrome-related coronavirus) (UniProt P0C6U8); remark: listed apart in the source
[11] = target: Replicase polyprotein 1a (Severe acute respiratory syndrome-related coronavirus) (UniProt P0C6U8); remark: listed apart in the source
[12] = target: Replicase polyprotein 1a (Severe acute respiratory syndrome-related coronavirus) (UniProt P0C6U8); remark: listed apart in the source
[13] = Inhibition of chymotrypsin using N-benzoyl-L-tyrosine ethyl ester as substrate assessed as benzoyl-tyrosine production at 200 uM measured every 10 seconds for 6 mins
Papain (Carica papaya) = target: T3, Papain (Carica papaya) (UniProt P00784); experiment: Inhibition of papaya papain using N-alpha-benzoyl-L-arginine-pnitroanilide as substrate at 200 uM after 5 mins
T3 sequence (whole entry): T2 sequence (P00784 whole entry)

[14] = target: Replicase polyprotein 1a (Severe acute respiratory syndrome-related coronavirus) (UniProt P0C6U8); settings: 1 to 100 uM
[15] = target: Replicase polyprotein 1a (Severe acute respiratory syndrome-related coronavirus) (UniProt P0C6U8); remark: listed apart in the source
[16] = target: Replicase polyprotein 1a (Severe acute respiratory syndrome-related coronavirus) (UniProt P0C6U8); settings: 200 uM; remark: listed apart in the source
[17] = target: Replicase polyprotein 1a (Severe acute respiratory syndrome-related coronavirus) (UniProt P0C6U8); remark: listed apart in the source
[18] = target: Protease (Human immunodeficiency virus 1) (UniProt Q9YQ12); experiment: Inhibition of Human immunodeficiency virus 1 protease at 200 uM preincubated for 10 mins by FRET assay
Sequence of Protease (Human immunodeficiency virus 1) (Q9YQ12 as listed by the source): as the sequence (Q9YQ12 whole entry) above

O=C(/C=C/c1cc(O)cc2c1[C@H](C(O)O[C@H](Cc1ccc(O)c(O)c1)C(=O)O)[C@@H](c1ccc(O)c(O)c1)O2)O[C@H](Cc1ccc(O)c(O)c1)C(=O)O (some centres not stated)
inhibition [1]: 30%

C[C@H]1COC2=C1C(=O)C(=O)c1c2ccc2c1CCCC2(C)C [CRYPTOTANSHINONE]
IC50 (Replicase polyprotein 1a [2]): 0.8 µM
IC50 (Replicase polyprotein 1a [3]): 227 µM
Ki (Replicase polyprotein 1a [4]): 9 µM
IC50 (Replicase polyprotein 1a [5]): 87.6 µM
IC50 [6]: 120 µM
IC50 (Papain): 89.8 µM
IC50 (Protease): 69.6 µM
inhibition [7]: tde
inhibition [8]: Active
IC50 (Replicase polyprotein 1a [9]): 10.1 µM
inhibition [10]: Dose-dependent effect
inhibition [11]: Active

Cc1cccc2c3c(ccc12)C1=C(C(=O)C3=O)[C@@H](C)CO1 [DIHYDROTANSHINONE I]
IC50 (Replicase polyprotein 1a [2]): 4.9 µM
inhibition [12]: Dose-dependent effect
IC50 (Replicase polyprotein 1a [3]): 14.4 µM
Ki (Replicase polyprotein 1a [4]): 11.2 µM
IC50 (Replicase polyprotein 1a [5]): 1.2 µM
inhibition [13]: inactive
inhibition (Papain (Carica papaya)): inactive
IC50 (Protease): 50.6 µM
inhibition [14]: inactive
inhibition [7]: tde
inhibition [8]: Active
IC50 (Replicase polyprotein 1a [9]): 10.7 µM
inhibition [15]: Active
inhibition [11]: Active

COC(=O)[C@@]1(C)CCCc2c1ccc1c2C(=O)C(=O)c2c(C)coc2-1 [METHYL TANSHINONATE]
IC50 (Replicase polyprotein 1a [2]): 9.2 µM
inhibition [12]: Dose-dependent effect
IC50 (Replicase polyprotein 1a [3]): 21.1 µM
Ki (Replicase polyprotein 1a [4]): 9.7 µM
inhibition [16]: inactive
IC50 [6]: 124 µM
inhibition (Papain (Carica papaya)): inactive
IC50 (Protease): 103 µM
inhibition [14]: inactive
inhibition [7]: tde
inhibition [8]: Active
IC50 (Replicase polyprotein 1a [9]): 10.6 µM
inhibition [15]: Active
inhibition [11]: Active

CC(C)C1=Cc2ccc3c(c2C(=O)C1=O)CCCC3(C)C [MILTIRONE]
IC50 (Replicase polyprotein 1a [2]): 30 µM
inhibition [12]: Dose-dependent effect
IC50 (Replicase polyprotein 1a [3]): 21.1 µM
Ki (Replicase polyprotein 1a [4]): 21.5 µM
IC50 (Replicase polyprotein 1a [5]): 60.2 µM
IC50 [6]: 139 µM
IC50 (Papain): 88 µM
IC50 (Protease): 148 µM
inhibition [14]: inactive
inhibition [7]: tde
inhibition [8]: Active
IC50 (Replicase polyprotein 1a [9]): 78.9 µM
inhibition [15]: Active
inhibition [17]: Active

Cc1coc2c1C(=O)C(=O)c1c-2ccc2c1CCCC2(C)C [TANSHINONE IIA]
IC50 (Replicase polyprotein 1a [2]): 1.6 µM
inhibition [12]: Dose-dependent effect
IC50 (Replicase polyprotein 1a [3]): 89.1 µM
Ki (Replicase polyprotein 1a [4]): 11.2 µM
inhibition [16]: inactive
IC50 [6]: 68.3 µM
IC50 (Papain): 122 µM
IC50 (Protease): 59.2 µM
inhibition [14]: inactive
inhibition [7]: tde
inhibition [8]: Active
IC50 (Replicase polyprotein 1a [9]): 17.1 µM
inhibition [15]: Active
inhibition [11]: Active

Cc1coc2c1C(=O)C(=O)c1c-2ccc2c1CCCC2(C)CO (configuration not stated) [TANSHINONE IIB]
IC50 (Replicase polyprotein 1a [2]): 10.7 µM
inhibition [12]: Dose-dependent effect
IC50 (Replicase polyprotein 1a [3]): 24.8 µM
Ki (Replicase polyprotein 1a [4]): 21.6 µM
IC50 (Replicase polyprotein 1a [5]): 52 µM
inhibition [13]: inactive
inhibition (Papain (Carica papaya)): inactive
inhibition [18]: inactive
inhibition [14]: inactive
inhibition [7]: tde
inhibition [8]: Active
IC50 (Replicase polyprotein 1a [9]): 18 µM
inhibition [15]: Active
inhibition [11]: Active

Cc1coc2c1C(=O)C(=O)c1c-2ccc2c(C)cccc12 [TANSHINONE I]
IC50 (Replicase polyprotein 1a [2]): 8.8 µM
inhibition [12]: Dose-dependent effect
IC50 (Replicase polyprotein 1a [3]): 38.7 µM
Ki (Replicase polyprotein 1a [4]): 13.7 µM
IC50 (Replicase polyprotein 1a [5]): 0.7 µM
IC50 [6]: 103 µM
inhibition (Papain (Carica papaya)): inactive
IC50 (Protease): 45.9 µM
inhibition [14]: inactive
inhibition [7]: tde
inhibition [8]: Active
IC50 (Replicase polyprotein 1a [9]): 11.5 µM
inhibition [15]: Active
inhibition [11]: Active
